The term pEC50 denotes the EC50 on a negative log10 scale, so that one unit is a factor of ten.

pEC50: −log10 of the molar value. Bounds are passed on as bounds.

Here are results for 18 compounds from patent publication US10799507B2, “5-(7H-pyrrolo[2,3-d]pyrimidin-4-yl)-5-azaspiro[2.5]octane-8-carboxylic acid derivatives as novel JAK kinase inhibitors” (LEO Pharma A/S, priority 2017, dated 2020).

One data set deals with JAK1 (Homo sapiens (Human), UniProt P23458). As to the kind of experiment: JAK kinase assay (HTRF), JAK1. It is filed as biochemical. The conditions noted are these: catalytic domain, ATP at Km (7 μM). The method in brief: (§1)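 Catalytic-domain human JAK1 (GST-tagged, aa 850-1154) or His-tagged JAK2, baculovirus-expressed, phosphorylated 1 µM biotinylated TK peptide at Km ATP (JAK1 7 µM, 10 mM MgCl2, 50 nM SEB; JAK2 4 µM, 5 mM MgCl2) in pH 7.0 Hepes, 20-30 min RT. EDTA stop; overnight streptavidin-XL665/cryptate HTRF read.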
JAK1, sequence (P23458 850-1154): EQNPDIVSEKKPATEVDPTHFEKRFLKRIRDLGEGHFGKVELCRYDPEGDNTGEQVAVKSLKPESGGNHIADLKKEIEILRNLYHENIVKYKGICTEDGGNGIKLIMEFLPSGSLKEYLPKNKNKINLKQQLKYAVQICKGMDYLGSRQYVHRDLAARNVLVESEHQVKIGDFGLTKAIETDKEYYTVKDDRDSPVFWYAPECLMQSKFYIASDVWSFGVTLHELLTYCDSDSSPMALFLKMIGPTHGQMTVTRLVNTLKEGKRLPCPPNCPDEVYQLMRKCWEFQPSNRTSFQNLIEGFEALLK

The target of the next data set is JAK2 (Homo sapiens (Human), UniProt O60674). Kind of data set: JAK kinase assay (HTRF), JAK2. The note with it: catalytic domain, ATP at Km (4 μM). In kind it is biochemical. The method in brief:
as §1
(In general: TR-FRET usually uses a lanthanide donor and a delayed reading to cut background.)

The target of the next data set is JAK3 (Homo sapiens (Human), UniProt P52333). Kind of data set: JAK kinase assay (HTRF), JAK3. It is filed as biochemical. The note with it: catalytic domain, ATP at Km (2 μM). The method in brief: (§2)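 Catalytic-domain human kinases, GST-tagged TYK2 (aa 871-1187) and His-tagged JAK3, phosphorylate 1 μM TK Substrate-Biotin for 20-30 min at RT in 50 mM Hepes pH 7.0, 5 mM MgCl2, ATP at Km (TYK2 13 μM with 50 nM SEB; JAK3 2 μM). Phosphorylation detected by HTRF.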
JAK3, sequence (P52333 822-1111): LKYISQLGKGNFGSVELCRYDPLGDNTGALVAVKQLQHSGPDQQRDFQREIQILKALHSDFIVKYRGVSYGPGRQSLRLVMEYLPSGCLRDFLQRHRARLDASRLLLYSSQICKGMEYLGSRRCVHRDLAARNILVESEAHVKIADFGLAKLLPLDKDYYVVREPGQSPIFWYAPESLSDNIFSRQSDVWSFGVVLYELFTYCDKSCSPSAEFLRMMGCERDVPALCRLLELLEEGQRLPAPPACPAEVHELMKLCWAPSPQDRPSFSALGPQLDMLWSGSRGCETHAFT

The next data set deals with TYK2 (Homo sapiens (Human), UniProt P29597). Kind of data set: JAK kinase assay (HTRF), TYK2. In kind it is biochemical. The note with it: catalytic domain, ATP at Km (13 μM). The method in brief: as §2
TYK2, sequence (P29597 871-1187): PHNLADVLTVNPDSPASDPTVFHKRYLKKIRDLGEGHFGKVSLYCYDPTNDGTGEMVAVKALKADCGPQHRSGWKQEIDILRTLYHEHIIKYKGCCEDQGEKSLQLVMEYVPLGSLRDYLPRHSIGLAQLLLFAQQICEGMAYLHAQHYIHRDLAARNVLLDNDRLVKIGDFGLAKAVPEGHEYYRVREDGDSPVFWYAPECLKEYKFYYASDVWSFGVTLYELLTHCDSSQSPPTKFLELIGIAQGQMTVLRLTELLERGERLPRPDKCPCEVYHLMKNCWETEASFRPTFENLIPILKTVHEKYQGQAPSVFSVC
The nature of data set [1]: in vitro metabolic stability in human liver microsomes. In kind it is in vitro ADME. The note with it: human, liver microsomes, 0.5 μM compound, 0.5 mg/mL microsomes, NADPH, 40 min, 37° C.; read-out: Human liver microsome Clapp (apparent intrinsic clearance). The method in brief: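 Compounds at 0.5 μM incubated in duplicate with human liver microsomes (0.5 mg/mL), phosphate buffer and NADPH at 37 °C for 40 min, sampled at 0, 5, 10, 20, 40 min into cold acetonitrile. LC-TOF-MS depletion gave elimination rate constant, from which apparent intrinsic clearance (Clapp) was calculated.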

JAK2, sequence (O60674 849-1124): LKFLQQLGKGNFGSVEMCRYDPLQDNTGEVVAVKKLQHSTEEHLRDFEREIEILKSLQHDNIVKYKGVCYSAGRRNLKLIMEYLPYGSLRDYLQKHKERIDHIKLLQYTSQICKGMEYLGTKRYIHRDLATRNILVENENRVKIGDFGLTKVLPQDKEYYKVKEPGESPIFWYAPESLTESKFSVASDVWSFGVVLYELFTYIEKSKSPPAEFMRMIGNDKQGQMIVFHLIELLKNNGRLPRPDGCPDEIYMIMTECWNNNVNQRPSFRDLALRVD

For `O=C(NC[C@@H](O)C1CCCCC1)[C@H]1CCN(c2ncnc3[nH]ccc23)CC12CC2` [Example 4, (8S)-N-[(2S)-2-cyclohexyl-2-hydroxy-ethyl]-5-(7H-pyrrolo[2,3-d]pyrimidin-4-yl)-5-azaspiro[2.5]octane-8-carboxamide], the negative logarithm of the EC50 (pEC50) on JAK1 was 9.30; on JAK2, 8.92; on JAK3, 8.47; at TYK2, 8.40. Moreover, the CLint scaled at 0.5 μM in data set [1] was greater than 200 mL/min/kg.

For `O=C(N[C@@H](CO)c1ccc(F)cc1F)[C@H]1CCN(c2ncnc3[nH]ccc23)CC12CC2` [Example 34, (8S)-N-[(1R)-1-(2,4-difluorophenyl)-2-hydroxy-ethyl]-5-(7H-pyrrolo[2,3-d]pyrimidin-4-yl)-5-azaspiro[2.5]octane-8-carboxamide], the pEC50 is 8.72 at JAK1, 8.43 on JAK2, 8.19 at JAK3 and 7.48 on TYK2. The CLint scaled at 0.5 μM in data set [1] came out at 69 mL/min/kg.

With `N#Cc1ccc([C@H](O)CNC(=O)[C@H]2CCN(c3ncnc4[nH]ccc34)CC23CC3)cc1` [Example 8, (8S)-N-[(2S)-2-(4-cyanophenyl)-2-hydroxy-ethyl]-5-(7H-pyrrolo[2,3-d]pyrimidin-4-yl)-5-azaspiro[2.5]octane-8-carboxamide], the pEC50 is 9.22 on JAK1, 8.57 at JAK2, 8.31 on JAK3 and 7.75 at TYK2. Also, the CLint scaled at 0.5 μM in data set [1] is greater than 200 mL/min/kg.

For `C[C@H](NC(=O)C1CCN(c2ncnc3[nH]ccc23)CC12CC2)c1ccc(C#N)cc1` (stereo partly drawn) [Example 21, N-[(1S)-1-(4-cyanophenyl)ethyl]-5-(7H-pyrrolo[2,3-d]pyrimidin-4-yl)-5-azaspiro[2.5]octane-8-carboxamide], the pEC50 at JAK1 is 8.96; on JAK2, 8.60; at JAK3, 8.11; on TYK2, 7.28. In data set [1], the CLint scaled at 0.5 μM came out at 170 mL/min/kg.

As to `Cc1cc([C@H](O)CNC(=O)[C@H]2CCN(c3ncnc4[nH]ccc34)CC23CC3)ncc1F` [Example 44, (8S)-N-[(2R)-2-(5-fluoro-4-methyl-2-pyridyl)-2-hydroxy-ethyl]-5-(7H-pyrrolo[2,3-d]pyrimidin-4-yl)-5-azaspiro[2.5]octane-8-carboxamide], the negative logarithm of the EC50 (pEC50) is 8.51 at JAK1, 7.80 at JAK2, 7.16 at JAK3 and 7.20 on TYK2. Also, in data set [1], the CLint scaled at 0.5 μM was greater than 200 mL/min/kg.

Consider `O=C(N[C@@H](CO)c1ccccc1)C1CCN(c2ncnc3[nH]ccc23)CC12CC2` (stereo partly drawn) [Example 69, N-[(1R)-2-hydroxy-1-phenyl-ethyl]-5-(7H-pyrrolo[2,3-d]pyrimidin-4-yl)-5-azaspiro[2.5]octane-8-carboxamide], for which the negative logarithm of the EC50 (pEC50) on JAK1 was 8.29; on JAK2 it was 7.92; on JAK3 it was 7.54; at TYK2, 6.53. For the same compound, the CLint scaled at 0.5 μM in data set [1] amounted to 44 mL/min/kg.

As to `N#Cc1ccc([C@H](CO)NC(=O)C2CCN(c3ncnc4[nH]ccc34)CC23CC3)cc1` (stereo partly drawn) [Example 19, N-[(1R)-1-(4-cyanophenyl)-2-hydroxy-ethyl]-5-(7H-pyrrolo[2,3-d]pyrimidin-4-yl)-5-azaspiro[2.5]octane-8-carboxamide], the pEC50 on JAK1 is 8.96; at JAK2 it was 8.40; on JAK3 it was 8.08; on TYK2, 6.96. In addition, the CLint scaled at 0.5 μM in data set [1] turned out to be 88 mL/min/kg.

Consider `O=C(NC[C@@H](O)c1ccccc1)[C@H]1CCN(c2ncnc3[nH]ccc23)CC12CC2` [Example 51, (8S)-N-[(2S)-2-hydroxy-2-phenyl-ethyl]-5-(7H-pyrrolo[2,3-d]pyrimidin-4-yl)-5-azaspiro[2.5]octane-8-carboxamide], for which the pEC50 was 8.46 at JAK1, 7.95 on JAK2, 7.31 at JAK3 and 7.39 on TYK2. The CLint scaled at 0.5 μM in data set [1] is greater than 200 mL/min/kg.

In the case of `O=C(N[C@@H](CO)C1CCCCC1)[C@H]1CCN(c2ncnc3[nH]ccc23)CC12CC2` [Example 24, (8S)-N-[(1R)-1-cyclohexyl-2-hydroxy-ethyl]-5-(7H-pyrrolo[2,3-d]pyrimidin-4-yl)-5-azaspiro[2.5]octane-8-carboxamide], the negative logarithm of the EC50 (pEC50) is 8.89 at JAK1, 8.57 on JAK2, 7.96 on JAK3 and 7.70 at TYK2. Also, the CLint scaled at 0.5 μM in data set [1] came out at 159 mL/min/kg.

`C[C@H](NC(=O)[C@H]1CCN(c2ncnc3[nH]ccc23)CC12CC2)c1ccc(C#N)cn1` [Example 48, (8S)-N-[(1S)-1-(5-cyano-2-pyridyl)ethyl]-5-(7H-pyrrolo[2,3-d]pyrimidin-4-yl)-5-azaspiro[2.5]octane-8-carboxamide]: the negative-log EC50 (pEC50) at JAK1 was 8.49; at JAK2 it was 7.99; at JAK3 it was 7.39; on TYK2, 6.89. In addition, the CLint scaled at 0.5 μM in data set [1] is 48 mL/min/kg.

For `O=C(NC[C@H](O)C1CCOCC1)[C@H]1CCN(c2ncnc3[nH]ccc23)CC12CC2` [Example 10, (8S)-N-[(2R)-2-hydroxy-2-tetrahydropyran-4-yl-ethyl]-5-(7H-pyrrolo[2,3-d]pyrimidin-4-yl)-5-azaspiro[2.5]octane-8-carboxamide], the pEC50 was 9.10 on JAK1, 8.54 on JAK2, 7.93 on JAK3 and 7.97 at TYK2. Further, the CLint scaled at 0.5 μM in data set [1] is 28 mL/min/kg.

`N#CCC1(COC(=O)[C@H]2CCN(c3ncnc4[nH]ccc34)CC23CC3)CC1` [Example 163, [1-(cyanomethyl)cyclopropyl]methyl (8S)-5-(7H-pyrrolo[2,3-d]pyrimidin-4-yl)-5-azaspiro[2.5]octane-8-carboxylate]: the negative-log EC50 (pEC50) on JAK1 was 8.51; at JAK2 it was 8.42; on JAK3, 7.89; on TYK2, 7.60. Moreover, the CLint scaled at 0.5 μM in data set [1] was greater than 200 mL/min/kg.

With `N#Cc1ccc(CNC(=O)[C@H]2CCN(c3ncnc4[nH]ccc34)CC23CC3)cc1F` [Example 16, (8S)-N-[(4-cyano-3-fluoro-phenyl)methyl]-5-(7H-pyrrolo[2,3-d]pyrimidin-4-yl)-5-azaspiro[2.5]octane-8-carboxamide], the pEC50 at JAK1 was 9.00; at JAK2, 8.44; on JAK3, 8.15; on TYK2, 7.35. The CLint scaled at 0.5 μM in data set [1] worked out at 180 mL/min/kg.

`C[C@H](NC(=O)C1CCN(c2ncnc3[nH]ccc23)CC12CC2)c1cccc(C#N)c1` (stereo partly drawn) [Example 86, N-[(1S)-1-(3-cyanophenyl)ethyl]-5-(7H-pyrrolo[2,3-d]pyrimidin-4-yl)-5-azaspiro[2.5]octane-8-carboxamide]: the negative-log EC50 (pEC50) at JAK1 was 8.15; on JAK2, 7.95; on JAK3, 7.42; on TYK2, 7.32. Besides, the CLint scaled at 0.5 μM in data set [1] is greater than 200 mL/min/kg.

Turning to `O=C(NCC1(CO)CC(F)(F)C1)[C@H]1CCN(c2ncnc3[nH]ccc23)CC12CC2` [Example 23, (8S)-N-[[3,3-difluoro-1-(hydroxymethyl)cyclobutyl]methyl]-5-(7H-pyrrolo[2,3-d]pyrimidin-4-yl)-5-azaspiro[2.5]octane-8-carboxamide], the pEC50 was 8.89 at JAK1, 8.57 at JAK2, 8.17 at JAK3 and 7.70 on TYK2. The CLint scaled at 0.5 μM in data set [1] was determined as 40 mL/min/kg.

For `N#CC1CC(CNC(=O)C2CCN(c3ncnc4[nH]ccc34)CC23CC3)C1` (stereo not drawn) [Example 59, N-[(3-cyanocyclobutyl)methyl]-5-(7H-pyrrolo[2,3-d]pyrimidin-4-yl)-5-azaspiro[2.5]octane-8-carboxamide], the pEC50 at JAK1 was 8.38; on JAK2, 7.92; at JAK3, 7.61; at TYK2, 6.49. In addition, in data set [1], the CLint scaled at 0.5 μM turned out to be 28 mL/min/kg.

For `C[C@@](CO)(NC(=O)[C@H]1CCN(c2ncnc3[nH]ccc23)CC12CC2)c1ccc(C#N)cc1` [Example 28, (8S)-N-[(1R)-1-(4-cyanophenyl)-2-hydroxy-1-methyl-ethyl]-5-(7H-pyrrolo[2,3-d]pyrimidin-4-yl)-5-azaspiro[2.5]octane-8-carboxamide], the pEC50 at JAK1 is 8.85; on JAK2, 8.26; at JAK3, 8.01; at TYK2, 7.25. In data set [1], the CLint scaled at 0.5 μM is 132 mL/min/kg.

Turning to `O=C(NCC1(O)CCC1)[C@H]1CCN(c2ncnc3[nH]ccc23)CC12CC2` [Example 68, (8S)-N-[(1-hydroxycyclobutyl)methyl]-5-(7H-pyrrolo[2,3-d]pyrimidin-4-yl)-5-azaspiro[2.5]octane-8-carboxamide], the pEC50 at JAK1 is 8.29; on JAK2, 7.93; on JAK3, 7.53; on TYK2 it was 7.11. For the same compound, in data set [1], the CLint scaled at 0.5 μM amounted to 23 mL/min/kg.
